In patent publication US6303618A, “Cyclin dependent kinase inhibiting purine derivatives” (priority 1997, dated 2001):
Where “and” joins values, the source holds several entries; their conditions need not be identical. Equal values may be shown once. Read-outs that look alike come from different tables or passages of the source.

How the values were obtained:
CDK2 = CDK2 (Homo sapiens, UniProt P24941); assay: CDK inhibition assay, CDK2; format: biochemical; details: for IC50: CDK2, Table 1, read-out: IC50 CDK2
Description: (§1) Apart from reference compounds, the compounds listed are accompanied by an NU reference or identification code number.
(§2) By way of example, however, a typical protocol is summarised below.

CDK4 = CDK4 (Homo sapiens, UniProt P11802); assay: CDK inhibition assay, CDK4; format: biochemical; details: CDK4; Table 1; read-out: IC50 CDK4
Description: as §1, §2

CDK1 (p34 cdc2)/cyclin B = assay: CDK inhibition assay (histone H1 kinase), CDK1; format: biochemical, starfish (Marthasterias glacialis); details: for % inhibition CDK1: at 100 μM; for IC50: CDK1; for IC50 / effect of side chain at N9 or N7, or halo at C2, on activity: Table 1; for effect of side chain at N9 or N7, or halo at C2, on activity: in words
Experimental: as §2
Histone H1 (type III-S (Sigma) 4° C.) 5 mg/ml in buffer C.
[^32 P]ATP […]: Make up using (multiples of) the following proportions:
DMSO cannot exceed 1% in the assay mixture. Inhibitors are added at 1/10 final assay volume and 10×final strength. DMSO stocks must therefore be diluted to 10×final desired concentration in ≤10% DMSO, ≥90% buffer C.
Start reaction in each tube at 30 second intervals by adding
5 ml [^32 P]ATP vortexing and placing in rack in waterbath at 30° C.
Terminate reaction after 10 min at 30 second intervals in tubes in same order by removing
25 ml reaction mix and spotting onto appropriately labelled filter, allowing to dry for 20-30 seconds and transferring to stirring 1% phosphoric acid.
Blank incubation is performed as above but without histone (add […] buffer C instead) Washing blank is […] ATP added directly to filter.

[1] = read-out: % inhibition CDK2, at 100 μM
[2] = at 100 μM, read-out: % inhibition CDK2

Sequence of CDK4 (P11802 whole entry, species assumed): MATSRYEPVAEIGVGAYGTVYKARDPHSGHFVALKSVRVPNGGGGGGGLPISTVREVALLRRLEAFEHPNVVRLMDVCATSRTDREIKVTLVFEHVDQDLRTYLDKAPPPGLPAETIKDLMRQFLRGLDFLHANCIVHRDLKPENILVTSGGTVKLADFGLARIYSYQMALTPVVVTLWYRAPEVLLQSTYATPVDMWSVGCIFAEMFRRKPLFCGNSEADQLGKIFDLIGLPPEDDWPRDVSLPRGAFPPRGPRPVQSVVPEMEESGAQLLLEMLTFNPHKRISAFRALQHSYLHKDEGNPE
Sequence of CDK4 (P24385 whole entry partner, species assumed): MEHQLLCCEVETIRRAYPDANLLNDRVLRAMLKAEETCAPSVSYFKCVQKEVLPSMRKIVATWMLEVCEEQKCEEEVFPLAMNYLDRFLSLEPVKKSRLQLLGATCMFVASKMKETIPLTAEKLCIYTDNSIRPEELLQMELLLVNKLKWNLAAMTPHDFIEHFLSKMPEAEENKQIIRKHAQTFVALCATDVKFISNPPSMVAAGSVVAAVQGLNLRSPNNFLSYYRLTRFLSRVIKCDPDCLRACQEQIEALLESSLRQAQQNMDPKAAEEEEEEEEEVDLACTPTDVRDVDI

Structure (SMILES)	IC50 (CDK1 (p34 cdc2)/cyclin B) [µM]	inhibition at 100 µM (CDK2; [1]) [%]	IC50 (CDK4)	% inhibition CDK1 (CDK1 (p34 cdc2)/cyclin B) [%]	other results
Nc1nc(OCC2COc3ccccc3O2)c2nc[nH]c2n1 (stereo not drawn) [NU6026, 2-amino-6-[1',4'-benzodioxanyl-2'-methyl]oxypurine]	–	96	> 100 µM	–	% inhibition CDK2 (CDK2; at 10 μM): 9%; inhibition at 10 µM (CDK2; read-out: % inhibition CDK2, at 10 μM): 12%
Nc1nc(OCc2ccccc2)c2[nH]c(=O)[nH]c2n1 [NU6043, 2-Amino-6-benzyl-8-oxoguanine]	–	–	–	13 ± 9	inhibition at 100 µM (CDK2; [2]): 8 ± 13%
Nc1nc(N)c(N)c(OCc2ccccc2)n1 [NU6040, 2,5,6-triamino-4-(benzylmethoxy) pyrimidine]	–	–	–	–	inhibition at 100 µM (CDK2; [2]): 6 ± 10%
Nc1nc(OCC2=CCCC2)c2nc[nH]c2n1 [NU2074, O^6-(1'-Cyclopentenyl)methylguanine]	7	–	–	–	–
Nc1nc(OCC2COC3(CCCCC3)O2)c2nc[nH]c2n1 (stereo not drawn) [NU6022, O^6-(1,4-Dioxaspiro[4.5]decane-2-methoxy)guanine]	–	27 ± 4	–	26 ± 6	–
Nc1nc(N)c(N)c(OCC2CCCCC2)n1 [NU6035, 2,5,6-triamino-4(cyclohexylmethoxy)-pyrimidine]	–	54 ± 8	–	40 ± 4	–
CC1(C)O[C@H]2[C@@H](O1)[C@@H](COc1nc(N)nc3[nH]cnc13)O[C@@H]1OC(C)(C)O[C@@H]12 [NU6017]	–	3 ± 7	> 100 µM	10 ± 6	–
COC(COc1nc(N)nc2[nH]cnc12)(OC)c1ccccc1 [NU2081, 2-amino-6-(2,2-dimethoxy)-2-phenylethyloxypurine]	> 100	–	–	–	–
Nc1nc(OCC2CCCO2)c2nc[nH]c2n1 (stereo not drawn) [NU6013, 2-amino-6-(2-tetrahydro-furanyl)-methyloxypurine]	–	39 ± 5	261 µM	48 ± 7	IC50 (CDK2): > 500 µM
CCC(COc1nc(N)nc2[nH]cnc12)(OC)OC [NU2050, 2-amino-6-(2,2-dimethoxy) butyloxypurine]	> 100	–	–	–	–
CO[C@@H]1O[C@H](COc2nc(N)nc3[nH]cnc23)[C@H]2OC(C)(C)O[C@@H]12 [NU6012, O^6 -Ribofuranosylguanine]	–	16 ± 5	> 100 µM	32	–
Nc1nc(OC[C@H]2CCC(=O)N2)c2nc[nH]c2n1 [NU6032, 2-amino-6-[(R)-2'-oxopyrrolidin-5'-methyl]oxypurine]	–	37 ± 2	> 1000 µM	54 ± 2	IC50 (CDK2): 123 µM
C=C(COc1nc(N)nc2[nH]cnc12)c1ccccc1 [NU2042, O^6-(2-Phenylallyl)guanine]	40	75 ± 2	> 100 µM and 330 µM	–	IC50 (CDK2): 23.3 µM
Nc1nc(OCC(=O)c2ccccc2)c2nc[nH]c2n1 [NU2033, O^6-(2-Oxo-2-phenylethyl)guanine]	100	–	–	–	–
Nc1nc(OC[C@@H]2CCC(=O)N2)c2nc[nH]c2n1 [NU6031, 2-amino-6-[(S)-2'-oxopyrrolidin-5'-methyl]oxypurine]	–	20 ± 2	> 1000 µM	26 ± 3	IC50 (CDK2): 314 µM
Nc1nc(OCC2CCCCO2)c2nc[nH]c2n1 (stereo not drawn) [NU6019, 2-amino-6-(2-tetrahydropyranyl)-methyloxypurine]	–	44 ± 2	> 100 µM	51 ± 4	–
Nc1cc(OCC2CC=CCC2)nc(N)n1 (stereo not drawn) [NU6046]	–	8 ± 1	–	16 ± 13	–
CNc1cc(Cl)nc(N)n1 [NU6042, 2-amino-4-chloro-6-methylamino pyrimidine]	–	–	–	–	inhibition at 100 µM (CDK2; [2]): 14 ± 24%
CCCCOc1nc(N)nc2nc[nH]c12 [NU2052, 2-amino-6-n-butoxypurine]	30	–	–	–	–
Nc1nc(OCc2cccnc2)c2nc[nH]c2n1 [NU6029, 2-Amino-6-(3'-pyridyl)methyloxypurine]	–	–	–	56 ± 4	inhibition at 100 µM (CDK2; [2]): 43 ± 4%

Now from value to compound, other results behind:

IC50 (CDK1 (p34 cdc2)/cyclin B) [µM]	Structure (SMILES)	inhibition at 100 µM (CDK2; [1]) [%]	IC50 (CDK4)	% inhibition CDK1 (CDK1 (p34 cdc2)/cyclin B) [%]	other results
> 1000	C=CCOc1nc(N)nc2ncn(CC=C)c12 [NU2037, N^7,O^6 -Diallylguanine]	–	–	–	effect of side chain at N9 or N7, or halo at C2, on activity (CDK1 (p34 cdc2)/cyclin B): activity drastically diminishes
50	C=CCOc1nc(N)nc2nc[nH]c12 [NU2028, 2-amino-6-allyloxypurine]	–	> 100 µM	–	–
8	Nc1nc(OCC2=CCCCC2)c2nc[nH]c2n1 [NU2076, O^6-(1'-Cyclohexenyl)methylguanine]	–	–	–	–
> 1000	C=CCOc1nc(N)nc2c1ncn2Cc1ccccc1 [NU2038, O^6 -Allyl-N^9 -benzylguanine]	–	–	–	effect of side chain at N9 or N7, or halo at C2, on activity (CDK1 (p34 cdc2)/cyclin B): activity drastically diminishes
20	C=C(CC)COc1nc(N)nc2[nH]cnc12 [NU2054, O^6-(2-Ethylallyl)guanine]	–	–	–	–
200	COc1nc(N)nc2nc[nH]c12 [NU2004, 2-amino-6-methoxypurine]	–	–	–	–
32	C=C(C)COc1nc(N)nc2[nH]cnc12 [NU2034, O^6-(2-Methylallyl)guanine]	–	–	–	–
100	Nc1nc(OCCc2ccccc2)c2nc[nH]c2n1 [NU2041, O^6-(2-Phenylethyl)guanine]	–	–	–	–
